Measured values taken from patent publication US20180092908A1, “SMALL MOLECULE OXIDIZERS OF PDI AND THEIR USE” (THE TRUSTEES OF COLUMBIA UNIVERSITY IN THE CITY OF NEW YORK, priority 2015, published 2018).
Converted amounts (≈) assume the structure as drawn.

Assays:
[1] = molecular target: T1, recombinant catalytic a domain of human PDI A1 (PDIa) (Homo sapiens, UniProt P07237); test: Insulin aggregation assay (PDIa reductase activity); assay type: biochemical
T1 construct: made in house; host or cells: Escherichia coli BL21-Gold (DE3)
T1 sequence (P07237 with tags, fused parts or gaps): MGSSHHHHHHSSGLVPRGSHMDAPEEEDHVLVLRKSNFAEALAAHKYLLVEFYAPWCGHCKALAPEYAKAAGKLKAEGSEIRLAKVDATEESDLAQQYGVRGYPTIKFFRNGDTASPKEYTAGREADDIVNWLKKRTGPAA

[2] = molecular target: T2, PDIa (Homo sapiens, UniProt P07237); test: Size-exclusion buffer dialysis for reversibility of binding (fluorescence); details: PDIa 20 μM treated with LOC14 300 μM overnight, 10 kDa filter dialysis
T2 construct: made in house; host or cells: Escherichia coli BL21-Gold (DE3)
T2 sequence (P07237 with tags, fused parts or gaps): as above
Protocol: Prior to dialysis, fluorescence emission spectra were recorded from 315 nm-550 nm wavelength with excitation at 280 nm on a Tecan Infinite 200 microplate reader. Fluorescence readings were carried out in a 384-well low volume, black bottom plate. Each well contained 40 μl of either LOC14 (300 μM), PDIa (20 μM), or PDIa (20 μM) treated with LOC14 (300 μM) overnight. All samples were dissolved in buffer B (20 mM sodium phosphate buffer pH 7.8). After recording the initial fluorescence spectra, samples were then transferred to Amicon Ultra 10 kDa size exclusion filter spin columns for dialysis. […] This step was repeated three more times with fresh buffer B. 40 μl of the collected samples from the flow-through and the spin-column chamber were transferred to a new 384-well plate and the emission spectra recorded as described above.
To investigate the mode of binding further and to determine whether the binding was reversible or irreversible, the fluorescence of the LOC14-PDIa complex was analyzed before and after buffer dialysis. […] If LOC14 binds irreversibly to the protein, then the same fluorescence spectrum of the LOC14-PDIa complex would be seen before and after dialysis in the dialysis chamber and none in the buffer compartment, assuming the fluorescence of LOC14 was not dramatically altered upon binding. […]

[3] = system: striatal medium spiny neurons (MSNs); test: HD brain slice assay (mHTT-Q73 transfected corticostriatal explants); assay type: cell-based; details: rat corticostriatal brain slice explants, YFP + mHTT-Q73, 4 days
Protocol: Brain slice explants were prepared and transfected as previously described (Reinhart et al., 2011). Briefly, brains were taken from postnatal day 10 CD Sprague-Dawley rat pups and cut into 250 μm coronal slices on a vibratome (Vibratome Co., St. Louis, Mo.). Brain slices containing striatum and cortex were then placed in individual wells of 12-well plates atop culture medium set in 0.5% agarose and maintained at 32° C. under 5% CO2. Co-transfection with YFP and Htt exon-1 containing a 73 polyglutamine repeat was done using a biolistic device (Bio-Rad Helios Gene Gun, Hercules, Calif.). Positive controls were transfected with YFP only or treated with a combination of 50 μM KW-6002 (istradefylline) and 50 μM SP600125. Negative control brain slices were treated with 0.1% DMSO carrier only. Striatal medium spiny neurons (MSNs) expressing YFP were visualized under fluorescence microscopy and identified based on their location within brain slices and their characteristic morphology.
Having elucidated aspects of the biophysical mechanism of action of LOC14 binding to PDI, the next exploration concerned whether LOC14 would be a good candidate for in vivo studies. […] In the absence of LOC14, very few healthy MSNs remained, as assessed by the lack of normal sized and shaped cell bodies, absence of long primary dendrites, and lack of continuous expression of YFP throughout the cell (FIG. 10).

[4] = system: plasma proteins; test: Mouse plasma protein binding assay; assay type: in vitro ADME; details: mouse plasma
Protocol: A test compound at the concentration of 2000 ng/mL in plasma was added into the sample chamber, and a dialysis buffer phosphate-buffered saline (PBS) was added into the buffer chamber, covering the unit with sealing tape and incubating for 4 hours at 37° C. at approximately 100 rpm on an orbital shaker. The incubation samples were taken from both plasma and buffer chamber at the end of the incubation, and then samples were analyzed by LC-MS/MS. Protein binding and free fraction percentage were determined using peak area ratio of analyte to internal standard. Fraction bound percent was calculated as: % Bound=100*(Cplasma−CPBS)/Cplasma. The fraction recovered percent was calculated as: % Recovery=(VPBS*CPBS+Vplasma*Cplasma)/(Vplasma*Cspike) where VPBS is Volume of PBS, Vplasma is Volume of Plasma, CPBS is Drug concentration in PBS (Analyte/IS peak area ratio), Cplasma is Drug concentration in plasma (Analyte/IS peak area ratio), Cspike is Drug concentration in spiked plasma (Analyte/IS peak area ratio).

[5] = system: cortical neurons; test: Tau4R-induced neurodegeneration brain slice assay; assay type: cell-based; details: rat corticostriatal brain slice, tau4R transfection, 4 days
Protocol: Rat corticostriatal brain slice explants co-transfected with YFP and the tau isoform with 4 tubulin-binding repeats (Tau4R) were treated with LOC14, an analog of LOC14 “BIT fragment” (1,2,Benzisothiazol-3-one), or DMSO only for 4 days. Data are plotted as mean±SEM from one of five representative experiments. *Significant by ANOVA followed by Dunnett's post hoc comparison test at p<0.05.
Next, whether LOC14 could be neuroprotective in additional models of neurodegenerative diseases was explored. […] In this rat corticostriatal brain slice assay, cortical neuron degeneration is induced by biolistic transfection with tau, in this case a tau isoform with 4 tubulin-binding repeats (“tau4R”) which is implicated in frontotemporal dementias and more broadly in Alzheimer's disease.

[6] = molecular target: T3, human catalytic PDI A1 a domain (PDIa) (Homo sapiens, UniProt P07237); test: Isothermal titration calorimetry (ITC) binding to PDIa; details: 400 μM LOC14 into 40 μM oxidized PDIa, compared to reduced PDIa
T3 construct: made in house; host or cells: Escherichia coli BL21-Gold (DE3)
T3 sequence (P07237 with tags, fused parts or gaps): as above

[7] = physchem; details: organic solvent or mixture
[8] = Solubility; details: DMSO, Table 5

Structure (SMILES): O=C(C1CC1)N1CCN(Cn2sc3ccccc3c2=O)CC1 [LOC14, 2-((4-(cyclopropanecarbonyl)piperazin-1-yl)methyl)benzo[d]isothiazol-3(2H)-one]
- Insulin Assay (either active or inactive) ([1]; Table 5): Active
- PDI's enzymatic activity after dilution of pre-formed complex ([1]; compound 750 μM + PDIa 500 μM, diluted 100-fold): complete recovery
- binding to PDIa reversible or irreversible [2]: reversible
- rescue of MSNs from mutant huntingtin-induced neurodegeneration [3]: rescued MSNs in a concentration-dependent manner
- binding to the plasma proteins [4]: low binding
- neuroprotection in tau-mediated neurodegeneration assay [5]: strongly and reproducibly neuroprotective
- binding affinity to oxidized PDIa [6]: loss in binding affinity
- solubility ([7]; DMSO): 40 mg/mL (≈ 126 mM)
- solubility ([7]; EtOH): 20 mg/mL (≈ 63 mM)
- solubility ([7]; MeOH): 40 mg/mL (≈ 126 mM)
- solubility ([7]; NMP): 80 mg/mL (≈ 252 mM)
- Solubility in DMSO [8]: 100 mM in DMSO
